Measured values reported in ChEMBL document CHEMBL4376892, “Identification of Parthenolide Dimers as Activators of Pyruvate Kinase M2 in Xenografts of Glioblastoma Multiforme in Vivo” (J Med Chem, 2020).
Activity calls are given as the source filed them. The calls are words filed in the database; no cut-off is given here.

Legend:
Pyruvate kinase PKM [1] = target: T1, Pyruvate kinase PKM (Homo sapiens, UniProt P14618); experiment: Activation of PKM2 in human U87 cells assessed as reduction in bcl2 expression at 1 to 2 uM after 48 hrs by Western blot analysis; assay type: cell-based; details: U-87MG ATCC
Pyruvate kinase PKM [2] = target: T1, Pyruvate kinase PKM; experiment: Activation of PKM2 in human U118MG cells assessed as increase in E-cadherin expression at 1 to 2 uM after 24 hrs by Western blot analysis; assay type: cell-based
U-87 MG [3] = experiment: Antiinvasive activity against human U87 cells transfected with lentivirus expressing shPKM2 at 2 uM incubated for 48 hrs by crystal violet staining based transwell assay; assay type: functional, cell-based; details: U-87MG ATCC
Pyruvate kinase PKM [4] = target: T1, Pyruvate kinase PKM; experiment: Covalent binding affinity to recombinant human N-terminal 6His-tagged PKM2 expressed in Escherichia coli BL21 Cells after 2 hrs by LC-MS/MS analysis
U-118-MG [5] = experiment: Antimigratory activity against human U118MG cells transfected with lentivirus expressing shPKM2 at 2 uM incubated for 48 hrs by crystal violet staining based transwell assay; assay type: functional, cell-based
U-118-MG [6] = experiment: Antimetastatic activity against human U118MG cells assessed as reduction in cell migration at 2 uM after 24 hrs by crystal violet staining based transwell assay; assay type: functional
U-87 MG [7] = experiment: Antiproliferative activity against human U87 cells transfected with lentivirus expressing shNC assessed as reduction in cell viability after 24 hrs by MTT assay; assay type: functional, cell-based, U-87MG ATCC
U-87 MG [8] = experiment: Antimigratory activity against human U87 cells transfected with lentivirus expressing shPKM2 at 2 uM incubated for 48 hrs by crystal violet staining based transwell assay; assay type: functional, cell-based; details: U-87MG ATCC
Pyruvate kinase PKM [9] = target: T1, Pyruvate kinase PKM; experiment: Activation of PKM2 in human U87 cells assessed as increase in bax protein expression at 1 to 2 uM after 48 hrs by Western blot analysis; assay type: cell-based; details: U-87MG ATCC
C6 = experiment: Antiproliferative activity against rat C6 cells assessed as reduction in cell viability after 72 hrs by MTT assay; assay type: functional, cell-based; details: C6, 72 h
Pyruvate kinase PKM [10] = target: T1, Pyruvate kinase PKM; experiment: Activation of PKM2 in human U118MG cells assessed as inhibition of STAT3 protein expression at 1 to 2 uM after 24 hrs by Western blot analysis; assay type: cell-based
U-118-MG [11] = experiment: Induction of apoptosis in human U118MG cells assessed as early apoptotic cells after 48 hrs by Annexin-V-FITC/PI-staining based flow cytometric analysis (reference value: 1.35%); assay type: functional
U-118-MG [12] = experiment: Induction of PDK4 protein expression in human U118MG cells at 2 uM after 48 hrs by Western blot analysis; assay type: functional, cell-based
Pyruvate kinase PKM [13] = target: T1, Pyruvate kinase PKM; experiment: Activation of recombinant human N-terminal 6His-tagged PKM2 expressed in Escherichia coli BL21 cells at 0.2 to 0.5 uM after 50 mins by fluorescence based analysis
U-87MG ATCC [14] = experiment: Effect on IKK-beta protein expression in human U87 cells at 0.2 to 0.5 uM after 48 hrs by Western blot analysis; assay type: functional, cell-based
U-87 MG [15] = experiment: Antiinvasive activity against human U87 cells transfected with lentivirus expressing shNC at 2 uM incubated for 48 hrs by crystal violet staining based transwell assay; assay type: functional, cell-based; details: U-87MG ATCC
SUM-159-PT = experiment: Antiproliferative activity against human SUM159 cells assessed as reduction in cell viability after 72 hrs by MTT assay; assay type: functional, cell-based
HeLa = experiment: Antiproliferative activity against human HeLa cells assessed as reduction in cell viability after 72 hrs by MTT assay; assay type: functional, cell-based
U-118-MG [16] = experiment: Antiproliferative activity against human U118MG cells transfected with lentivirus expressing shPKM2 assessed as as reduction in cell viability after 24 hrs by MTT assay; assay type: functional, cell-based
NIH3T3 = experiment: Cytotoxicity against mouse 3T3 cells assessed as reduction in cell viability after 72 hrs by MTT assay; assay type: cell-based; details: NIH3T3, 72 h
Pyruvate kinase PKM [17] = target: T1, Pyruvate kinase PKM; experiment: Activation of recombinant human N-terminal 6His-tagged PKM2 expressed in Escherichia coli BL21 cells at 10 uM after 30 mins by fluorescence based analysis relative to control
U-87 MG [18] = experiment: Induction of apoptosis in human U87 cells transfected with lentivirus expressing shPKM2 assessed as early apoptotic cells after 48 hrs by Annexin-V-FITC/PI-staining based flow cytometric analysis (reference value: 0.88%); assay type: functional, U-87MG ATCC
Pyruvate kinase PKM [19] = target: T1, Pyruvate kinase PKM; experiment: Activation of PKM2 in human U87 cells assessed as increase in E-cadherin expression at 1 to 2 uM after 24 hrs by Western blot analysis; assay type: cell-based; details: U-87MG ATCC
Pyruvate kinase PKM [20] = target: T1, Pyruvate kinase PKM; experiment: Activation of PKM2 in human U87 cells assessed as inhibition of STAT3 phosphorylation at 1 to 2 uM after 24 hrs by Western blot analysis; assay type: cell-based; details: U-87MG ATCC
U-87MG ATCC [21] = experiment: Effect on total PKM2 protein expression in human U87 cells at 0.5 to 5 uM after 48 hrs by Western blot analysis; assay type: functional, cell-based

T1 sequence (P14618 2-531 limits assumed): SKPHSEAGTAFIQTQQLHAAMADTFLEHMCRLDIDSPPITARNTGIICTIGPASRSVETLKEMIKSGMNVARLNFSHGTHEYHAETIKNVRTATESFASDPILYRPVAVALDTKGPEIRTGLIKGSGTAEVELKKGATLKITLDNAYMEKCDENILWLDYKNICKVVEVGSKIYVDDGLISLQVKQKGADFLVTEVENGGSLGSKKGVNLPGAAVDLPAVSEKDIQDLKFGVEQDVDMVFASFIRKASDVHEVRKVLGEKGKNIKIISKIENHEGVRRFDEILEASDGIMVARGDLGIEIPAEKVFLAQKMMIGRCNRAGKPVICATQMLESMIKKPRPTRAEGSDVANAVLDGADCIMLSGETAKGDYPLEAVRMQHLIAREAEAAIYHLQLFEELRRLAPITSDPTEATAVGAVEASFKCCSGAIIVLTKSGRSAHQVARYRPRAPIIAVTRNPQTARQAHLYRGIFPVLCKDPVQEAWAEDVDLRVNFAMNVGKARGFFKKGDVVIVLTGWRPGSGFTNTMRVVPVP

Activity (Pyruvate kinase PKM [1]): Active
Activity (Pyruvate kinase PKM [2]): Active
Activity (Pyruvate kinase PKM [4]): Active
IC50 (U-87 MG [7]): 7.39 µM
Activity (Pyruvate kinase PKM [9]): Active
Activity (Pyruvate kinase PKM [10]): Active
Activity (Pyruvate kinase PKM [13]): Active
IC50 (HeLa): 5.05 µM
fold change (FC) (Pyruvate kinase PKM [17]): > 2
Activity (Pyruvate kinase PKM [19]): Active
Activity (Pyruvate kinase PKM [20]): Active
Compound: C=C1C(=O)O[C@H]2[C@H]1CC/C(C(=O)OCCOCCOC(=O)/C1=C/CC[C@@]3(C)O[C@H]3[C@H]3OC(=O)C(=C)[C@@H]3CC1)=C\CC[C@@]1(C)O[C@@H]21
Activity (U-87 MG [3]): inactive
Activity (U-118-MG [5]): inactive
Activity (U-118-MG [6]): Active
Activity (U-87 MG [8]): inactive
IC50 (C6): 1.66 µM
Activity (U-118-MG [11]): 39.4%
Activity (U-118-MG [12]): Active
Activity (U-87MG ATCC [14]): inactive
Activity (U-87 MG [15]): Active
IC50 (SUM-159-PT): 2.82 µM
IC50 (U-118-MG [16]): 1.98 µM
IC50 (NIH3T3): 7.93 µM
Activity (U-87 MG [18]): 3.74%
Activity (U-87MG ATCC [21]): inactive
